Data taken from patent publication US9227956B2 (Pfizer Inc., priority 2013, dated 2016).

Tests used:
human PCSK9 [1] = assay: PCSK9 AlphaLISA assay, PCSK9 lowering in WT7 cells; conditions: WT7 cells (Huh7 stably over-expressing human PCSK9); secreted PCSK9 by AlphaLISA; overnight incubation (16-24 h); top concentration 20 μM; read-out: Cell Based PCSK9 IC50
Text: An in-vitro AlphaLISA assay (Perkin Elmer) was developed in order to quantitate the level of PCSK9 secreted into the cell culture media following compound treatment. To detect and measure PCSK9 protein an in-house generated anti-PCSK9 antibody was coupled to AlphaLISA acceptor beads by an external vendor (PerkinElmer) and a second internally developed anti-PCSK9 antibody with an epiptope distinct from that of the acceptor beads was biotinylated in house. Streptavidin coated-donor beads (Perkin Elmer) are also included in the assay mixture which then binds the biotinylated anti-PCSK9 antibody and in the presence of PCSK9 this donor complex and acceptor beads are brought into close proximity. […] The ability of compound to modulate PCSK9 protein levels in conditioned media by AlphaLISA was assessed in the human hepatocellular carcinoma cell line Huh7, stably over-expressing human PCSK9. […] Following plasmid transfection the stable WT7 clone was identified and maintained under Zeocin selection. Compound screening was performed in 384-well plates where WT7 cells were plated at a density of 7500 cells per well in 20 μL of tissue culture media containing compound in an eleven point, 0.5 log dilution format at a high treatment concentration of 20 μM in a final volume of 0.5% DMSO. In additional to these test compound conditions each screening plate also included wells that contained 20 μM puromycin as a positive assay control defined as high percent effect, HPE, as well as wells containing media in 0.5% DMSO as a negative treatment control defined as zero percent effect, ZPE. After overnight compound incubation (16-24 h) the tissue culture media was collected and an aliquot from each sample was transferred to individual wells of a 384-well white Optiplate (Perkin Elmer). The coupled antibodies and donor beads were added to the assay plates in a buffer composed of 30 mM Tris pH 7.4, 0.02% Tween-20 and 0.02% Casein. Anti-PCSK9 acceptor beads (final concentration of 10 μg/mL) and anti-PCSK9 biotinylated antibody (final concentration of 3 nM) were added and incubated for 30 minutes at room temperature followed by the addition of the streptavidin donor beads (final concentration 40 μg/mL) for an additional 60 minutes. Additionally a standard curve was generated where AlphaLISA reagents were incubated in wells spiked with recombinant human PCSK9 diluted in tissue culture media from 5000 ng/mL to 0.6 ng/mL. […] The test compound data were converted into percent effect, using the ZPE and HPE controls as 0% and 100% activity, respectively. The equation used for converting each well reading into percent effect was:
[formula] IC50 was then calculated and reported as the midpoint in the percent effect curve in molar units and the values are reported under the Cell Based PCSK9 IC50 (μM) column header within Table 1 Biological Data. Additionally, to monitor the selectivity of compound response for PCSK9 the level of a second secreted protein, Transferrin, was measured from the same conditioned media treated with test compound by AlphaLISA. […] To detect and quantify effects on Transferrin 0.01 mL of the culture media was transferred to a 384-well white Optiplate and 0.01 mL of media was added to bring the volume to 0.02 ml. Anti-Transferrin acceptor beads were added to a final concentration of 10 μg/mL, biotinylated anti-Transferrin at 3 nM and streptavidin donor beads at 40 μg/mL. Percent effect and IC50 for Transferrin was computed in a similar manner as that described for PCSK9.

PCSK9 = PCSK9 lowering in sandwich culture human hepatocytes (SCHH); type: cell-based; conditions: maximum response versus vehicle
Procedure: Test compound in-vitro pharmacokinetic and pharmacodynamic relationships were measured in sandwich culture primary cryopreserved human hepatocytes. Within these studies SCHH cells (BD Biosciences IVT) were thawed at 37° C. then placed on ice, after which the cells were added to pre-warmed (37° C.) In VitroGRO-HT media and centrifuged at 50×g for 3 min. The cell pellet was re-suspended to 0.8×10^6 cells/mL in InVitroGRO-CP plating medium and cell viability determined by trypan blue exclusion. On day 1, hepatocyte suspensions were plated in BioCoat 96-well plates at a density of 80000 cells/well in a volume of 0.1 mL/well. After 18 to 24 hours of incubation at 37° C. in 5% CO2, cells were overlaid with ice-cold 0.25 mg/mL BD Matrigel Matrix Phenol Red-Free in incubation medium at 0.1 mL/well. Cultures were maintained at 37° C. in 5% CO2 in InVitroGRO-HI (FBS-free media), which was replaced every 24 hours and time course treatments were initiated on day 5. Prior to compound treatment cell plates were washed 3 times with 0.1 mL/well InVitroGRO-HI and 0.09 mL of media was added back in preparation for the compound additions. 1 uL of either DMSO or compound DMSO stocks at 30 mM, 10 mM, 3 mM and 1 mM were stamped into 96 well V bottom polypropylene plates. 0.099 mL of media was added to the compound plate and mixed thoroughly before the addition of 0.010 mL from the interim compound plate to the cell plate. […] At the indicated time, 0.08 mL of media was removed from the cell plates and frozen for subsequent analysis of secreted PCSK9 by AlphaLISA and for determination of drug levels in the media by liquid chromatography-tandem mass spectrometry (LC-MS/MS). The remaining media was then aspirated and the cell layers were washed 3× with ice cold Hanks Balanced Salt Solution (HBSS) under shaking conditions to remove the matrigel overlay and plates were then stored at −20° C. for subsequent determination of drug levels in the cells by LC-MS/MS. AlphaLISA determination of PCSK9 protein levels within the conditioned media was performed ultilizing the identical reagents and detection protocols described above for the WT7 cells.

human PCSK9 [2] = assay: Cell Free PCSK9 Assay (PCSK9-luciferase RNA translated in HeLa cell lysate); type: biochemical; conditions: 30° C. for 45 minutes, luciferase readout, top concentration 100 μM
Procedure: In order to eliminate the permeability barrier inherent to the WT7 and SCHH cell-based assays a cell-free system was also established to access compound activity. […] The construct was then in-vitro transcribed using the MEGAscript T7 Kit (Life Technologies) and RNA subsequently purified incorporating the MEGAclear Kit (Life Technologies) according to manufacturer's protocols. […] Growth was in a 50 L wavebag at a rocker speed of 25 rpm and angle 6.1 with 5% CO2 and 0.2 LPM flow rate with cells harvested at a density of 2-2.5e6/ml. Lysates additionally contained 1 tablet of Roche cOmplete-EDTA protease inhibitors per 50 ml with tris(2-carboxyethyl)phosphine (Biovectra) substituted for dithiothreitol, and were clarified by an additional final centrifugation at 10,000 rpm in a Sorvall SS34 rotor at 4° C. for 10 minutes. Compound screening was performed in 384-well plates in an eleven point, 0.5 log dilution format at a top test compound concentration of 100 μM in a final volume of 0.5% DMSO. […] Upon assay completion 1 μL from each reaction solution was removed and transferred to a second 384-well Optiplate (Perkin Elmer) containing 24 μL of SteadyGlo (Promega) and signal intensity was measured on the Envision (Perkin Elmer) using the enhanced luminescence protocol. […] The test compound data were converted into percent effect, using the ZPE and HPE controls as 0% and 100% activity, respectively, applying Equation 1 above. IC50 was then calculated and reported as the midpoint in the percent effect curve in molar units and the values are reported under the Cell Free PCSK9 IC50 (μM) column header within Table 1 Biological Data.

SMILES	IC50 (human PCSK9 [1]) [µM]	Sandwich Culture Hepatocyte (SCHH) PCSK9 Lowering (PCSK9; at 6 h at 30 uM) [% at 6 h at 30 uM]	IC50 (human PCSK9 [2]) [µM]	Sandwich Culture Hepatocyte (SCHH) PCSK9 Lowering (PCSK9; at 8 h at 30 μM)
CCOC(=O)OC(C)OC(=O)c1c(-c2ccc(C(=O)N(c3nccc4ccccc34)[C@@H]3CCCNC3)cc2)cnn1C (stereo partly drawn) [Example 11, 1-[(ethoxycarbonyl)oxy]ethyl 4-(4-{isoquinolin-1-yl[(3R)-piperidin-3-yl]carbamoyl}phenyl)-1-methyl-1H-pyrazole-5-carboxylate]			2.1	
CCOC(=O)OC(C)OC(=O)c1c(-c2ccc(C(=O)N(c3nccc4ccn(C)c34)[C@@H]3CCCNC3)cc2)cnn1C (stereo partly drawn) [Example 14, 1-[(ethoxycarbonyl)oxy]ethyl 1-methyl-4-(4-{(1-methyl-1H-pyrrolo[2,3-c]pyridin-7-yl)[(3R)-piperidin-3-yl]carbamoyl}phenyl)-1H-pyrazole-5-carboxylate]	4.5			54% at 8 h at 30 μM
CCOC(=O)OC(C)n1nnnc1-c1c(-c2ccc(C(=O)N(c3ncccc3C)[C@@H]3CCCNC3)cc2)cnn1C (some centres unmarked) [Example 21]	> 20	57		
Cn1ncc(-c2ccc(C(=O)N(c3ncccc3Cl)[C@@H]3CCCNC3)cc2)c1C(=O)NS(=O)(=O)C(F)(F)F [Example 22, 4-(4-{(3-chloropyridin-2-yl)[(3R)-piperidin-3-yl]carbamoyl}phenyl)-1-methyl-N-[(trifluoromethyl)sulfonyl]-1H-pyrazole-5-carboxamide]	> 20		5.8	
Cn1ncc(-c2ccc(C(=O)N(c3ncccc3Cl)[C@@H]3CCCNC3)cc2)c1C(=O)Nc1nnn[nH]1 [Example 24, 4-(4-{(3-chloropyridin-2-yl)[(3R)-piperidin-3-yl]carbamoyl}phenyl)-1-methyl-N-(1H-tetrazol-5-yl)-1H-pyrazole-5-carboxamide]	> 20		25.3	
Cn1ncc(-c2ccc(C(=O)N(c3ncccc3Cl)[C@@H]3CCCNC3)cc2)c1C(=O)NO [Example 25, 4-(4-{(3-chloropyridin-2-yl)[(3R)-piperidin-3-yl]carbamoyl}phenyl)-N-hydroxy-1-methyl-1H-pyrazole-5-carboxamide]	> 20		2.97	
Cn1ncc(-c2ccc(C(=O)N(c3ncccc3Cl)[C@@H]3CCCNC3)cc2)c1-c1nn[nH]n1 [Example 26, N-(3-chloropyridin-2-yl)-4-[1-methyl-5-(2H-tetrazol-5-yl)-1H-pyrazol-4-yl]-N-[(3R)-piperidin-3-yl]benzamide]	> 20		5.75	
Cn1ncc(-c2ccc(C(=O)N(c3ncccc3Cl)[C@@H]3CCCNC3)cc2)c1C(=O)NS(C)(=O)=O [Example 27, 4-(4-{(3-chloropyridin-2-yl)[(3R)-piperidin-3-yl]carbamoyl}phenyl)-1-methyl-N-(methylsulfonyl)-1H-pyrazole-5-carboxamide]	> 20		14.3	
Cc1cccnc1N(C(=O)c1ccc(-c2cnn(C)c2C(=O)NS(C)(=O)=O)cc1)[C@@H]1CCCNC1 [Example 28, 1-methyl-4-(4-{(3-methylpyridin-2-yl)[(3R)-piperidin-3-yl]carbamoyl}phenyl)-N-(methylsulfonyl)-1H-pyrazole-5-carboxamide]	> 20		16.8	
CCOC(=O)OC(C)N(C(=O)c1c(-c2ccc(C(=O)N(c3ncccc3C)[C@@H]3CCCNC3)cc2)cnn1C)S(C)(=O)=O (stereo partly drawn) [Example 29, ethyl 1-[{[1-methyl-4-(4-{(3-methylpyridin-2-yl)[(3R)-piperidin-3-yl]carbamoyl}phenyl)-1H-pyrazol-5-yl]carbonyl}methylsulfonyl)amino]ethyl carbonate]	> 20	72		

Second part, the compound after the results:

IC50 (human PCSK9 [1]) [µM]	Sandwich Culture Hepatocyte (SCHH) PCSK9 Lowering (PCSK9; at 6 h at 30 uM) [% at 6 h at 30 uM]	IC50 (human PCSK9 [2]) [µM]	Sandwich Culture Hepatocyte (SCHH) PCSK9 Lowering (PCSK9; at 8 h at 30 μM)	SMILES
> 20	12			CCC(=O)OC(CC)n1nnc(-c2c(-c3ccc(C(=O)N(c4ncccc4C)[C@@H]4CCCNC4)cc3)cnn2C)n1 (single isomer, unassigned) [Example 47]
1.7		0.69		O=C(c1ccc(-c2cnn3cccnc23)cc1)N(c1ncccc1Cl)[C@@H]1CCCNC1 [Example 2, N-(3-chloropyridin-2-yl)-N-[(3R)-piperidin-3-yl]-4-(pyrazolo[1,5-a]pyrimidin-3-yl)benzamide]
> 20		3.8		Cn1ncc(-c2ccc(C(=O)N(c3nccc4ccccc34)[C@@H]3CCCNC3)cc2)c1C(=O)O [Example 4, 4-(4-{isoquinolin-1-yl[(3R)-piperidin-3-yl]carbamoyl}phenyl)-1-methyl-1H-pyrazole-5-carboxylic acid]
> 16.7			11% at 8 h at 30 uM	CCOC(=O)O[C@@H](C)n1nnc(-c2c(-c3ccc(C(=O)N(c4ncccc4C)[C@@H]4CCCNC4)cc3)cnn2C)n1 [Example 30, ethyl (1S)-1-{5-[1-methyl-4-(4-{(3-methylpyridin-2-yl)[(3R)-piperidin-3-yl]carbamoyl}phenyl)-1H-pyrazol-5-yl]-2H-tetrazol-2-yl}ethyl carbonate]
> 20			19% at 8 h at 30 uM	CCOC(=O)O[C@H](C)n1nnc(-c2c(-c3ccc(C(=O)N(c4ncccc4C)[C@@H]4CCCNC4)cc3)cnn2C)n1 [Example 31, ethyl (1R)-1-{5-[1-methyl-4-(4-{(3-methylpyridin-2-yl)[(3R)-piperidin-3-yl]carbamoyl}phenyl)-1H-pyrazol-5-yl]-2H-tetrazol-2-yl}ethyl carbonate]
